System: 633275-114-R-J1-PDC complex spheroids, viability
Test: Anticancer human tumor 633275-114-R-J1-PDC patient-derived endometrial adenocarcinoma cell line growth inhibition [GQUAD]
Settings: for IC50: curve of first compound; for viability, T/C: stronger effect = lower value
Procedure, shortened: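 Tumor cells were grown as complex spheroids with HUVEC endothelial cells and mesenchymal stem cells as stroma. G-quadruplex stabilizers were combined with targeted agents over half-log dilutions from near the clinical Cmax, or from 10 microM.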

[1] = second compound 0.0316 µM, first compound 0.0316 µM
[2] = second compound 0.0316 µM, first compound 0.1 µM
[3] = second compound 0.0316 µM, first compound 0.316 µM
[4] = second compound 0.0316 µM, first compound 1 µM
[5] = second compound 0.0316 µM, first compound 3.16 µM
[6] = second compound 0.0316 µM, first compound 10 µM
[7] = second compound 0.1 µM, first compound 0.0316 µM
[8] = second compound 0.1 µM, first compound 0.1 µM
[9] = second compound 0.1 µM, first compound 0.316 µM
[10] = second compound 0.1 µM, first compound 1 µM
[11] = second compound 0.1 µM, first compound 3.16 µM
[12] = second compound 0.1 µM, first compound 10 µM
[13] = second compound 0.316 µM, first compound 0.0316 µM
[14] = second compound 0.316 µM, first compound 0.1 µM
[15] = second compound 0.316 µM, first compound 0.316 µM
[16] = second compound 0.316 µM, first compound 1 µM
[17] = second compound 0.316 µM, first compound 3.16 µM
[18] = second compound 0.316 µM, first compound 10 µM
[19] = second compound 1 µM, first compound 0.0316 µM
[20] = second compound 1 µM, first compound 0.1 µM
[21] = second compound 1 µM, first compound 0.316 µM
[22] = second compound 1 µM, first compound 1 µM
[23] = second compound 1 µM, first compound 3.16 µM
[24] = second compound 1 µM, first compound 10 µM
[25] = second compound 3.16 µM, first compound 0.0316 µM
[26] = second compound 3.16 µM, first compound 0.1 µM
[27] = second compound 3.16 µM, first compound 0.316 µM
[28] = second compound 3.16 µM, first compound 1 µM
[29] = second compound 3.16 µM, first compound 3.16 µM
[30] = second compound 3.16 µM, first compound 10 µM
[31] = second compound 10 µM, first compound 0.0316 µM
[32] = second compound 10 µM, first compound 0.1 µM
[33] = second compound 10 µM, first compound 0.316 µM
[34] = second compound 10 µM, first compound 1 µM
[35] = second compound 10 µM, first compound 3.16 µM
[36] = second compound 10 µM, first compound 10 µM
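Note: spheroids exposed to the agents for seven days.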
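Throughout, for viability, T/C: percent of DMSO vehicle control viability which is 100%.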

Compound: COc1ccc([C@@H](O)c2cc(-c3ncnc4cc(N5CCOCC5)ccc34)c(F)cc2Cl)nn1 + Cc1[nH]c2ccc(F)cc2c1-c1nc2c3cccnc3c3ncccc3c2[nH]1
- IC50 (second compound 0.0316 µM): 4910 nM
- IC50 (second compound 0.1 µM): 3710 nM
- IC50 (second compound 0.316 µM): 2910 nM
- IC50 (second compound 1 µM): 3150 nM
- IC50 (second compound 3.16 µM): 1880 nM
- IC50 (second compound 10 µM): 1410 nM
- viability, T/C [1]: 107%
- viability, T/C [2]: 91%
- viability, T/C [3]: 82.9%
- viability, T/C [4]: 72.5%
- viability, T/C [5]: 58%
- viability, T/C [6]: 38.5%
- viability, T/C [7]: 96.8%
- viability, T/C [8]: 99.8%
- viability, T/C [9]: 87.5%
- viability, T/C [10]: 66.5%
- viability, T/C [11]: 54.8%
- viability, T/C [12]: 39.7%
- viability, T/C [13]: 89.5%
- viability, T/C [14]: 96.8%
- viability, T/C [15]: 88.9%
- viability, T/C [16]: 69.2%
- viability, T/C [17]: 50.2%
- viability, T/C [18]: 35.1%
- viability, T/C [19]: 83.8%
- viability, T/C [20]: 90.5%
- viability, T/C [21]: 85.4%
- viability, T/C [22]: 69.9%
- viability, T/C [23]: 51.1%
- viability, T/C [24]: 33.9%
- viability, T/C [25]: 71.3%
- viability, T/C [26]: 68.3%
- viability, T/C [27]: 63.2%
- viability, T/C [28]: 56.8%
- viability, T/C [29]: 44.7%
- viability, T/C [30]: 29.7%
- viability, T/C [31]: 70.3%
- viability, T/C [32]: 69.3%
- viability, T/C [33]: 70.6%
- viability, T/C [34]: 51.3%
- viability, T/C [35]: 42.3%
- viability, T/C [36]: 31.6%

Compound: Cc1cccc(N(C)C(=O)C2C(O)CCN2c2nc(C)cc(C(F)(F)F)c2C#N)c1 (stereo not given) + Cc1cnc(CNC(=O)c2c(=O)c3ccc(N4CCCN(C)CC4)nc3n3c2sc2ccccc23)cn1
- IC50 (second compound 0.0316 µM): > 10000 nM
- IC50 (second compound 0.1 µM): 814 nM
- IC50 (second compound 0.316 µM): < 31.6 nM
- IC50 (second compound 1 µM): < 31.6 nM
- IC50 (second compound 3.16 µM): < 31.6 nM
- IC50 (second compound 10 µM): < 31.6 nM
- viability, T/C [1]: 66.2%
- viability, T/C [2]: 64.1%
- viability, T/C [3]: 59.2%
- viability, T/C [4]: 65%
- viability, T/C [5]: 60.5%
- viability, T/C [6]: 67.8%
- viability, T/C [7]: 55.1%
- viability, T/C [8]: 52%
- viability, T/C [9]: 53.7%
- viability, T/C [10]: 48.3%
- viability, T/C [11]: 47.5%
- viability, T/C [12]: 46.8%
- viability, T/C [13]: 40%
- viability, T/C [14]: 41.5%
- viability, T/C [15]: 46%
- viability, T/C [16]: 50.9%
- viability, T/C [17]: 43.4%
- viability, T/C [18]: 44.5%
- viability, T/C [19]: 41.2%
- viability, T/C [20]: 42.1%
- viability, T/C [21]: 41.4%
- viability, T/C [22]: 39.9%
- viability, T/C [23]: 37.3%
- viability, T/C [24]: 37.7%
- viability, T/C [25]: 36.3%
- viability, T/C [26]: 35%
- viability, T/C [27]: 32.1%
- viability, T/C [28]: 33.5%
- viability, T/C [29]: 37.2%
- viability, T/C [30]: 35%
- viability, T/C [31]: 27.2%
- viability, T/C [32]: 33.9%
- viability, T/C [33]: 27.9%
- viability, T/C [34]: 31.4%
- viability, T/C [35]: 34.2%
- viability, T/C [36]: 24.2%

Compound: O=C(NO)c1cnc(N2CCN(S(=O)(=O)c3ccc4ccccc4c3)CC2)nc1 + Cc1[nH]c2ccc(F)cc2c1-c1nc2c3cccnc3c3ncccc3c2[nH]1
- IC50 (second compound 0.0316 µM): 371 nM
- IC50 (second compound 0.1 µM): 527 nM
- IC50 (second compound 0.316 µM): 574 nM
- IC50 (second compound 1 µM): 492 nM
- IC50 (second compound 3.16 µM): 336 nM
- IC50 (second compound 10 µM): 362 nM
- viability, T/C [1]: 88.1%
- viability, T/C [2]: 77.9%
- viability, T/C [3]: 51.7%
- viability, T/C [4]: 29%
- viability, T/C [5]: 16.9%
- viability, T/C [6]: 5.26%
- viability, T/C [7]: 91.7%
- viability, T/C [8]: 83.9%
- viability, T/C [9]: 63.5%
- viability, T/C [10]: 32.1%
- viability, T/C [11]: 16%
- viability, T/C [12]: 3.49%
- viability, T/C [13]: 82.3%
- viability, T/C [14]: 86.2%
- viability, T/C [15]: 62.4%
- viability, T/C [16]: 34.7%
- viability, T/C [17]: 18.5%
- viability, T/C [18]: 1.56%
- viability, T/C [19]: 91.3%
- viability, T/C [20]: 77.2%
- viability, T/C [21]: 57.9%
- viability, T/C [22]: 37%
- viability, T/C [23]: 17.2%
- viability, T/C [24]: 1.48%
- viability, T/C [25]: 72.3%
- viability, T/C [26]: 60.2%
- viability, T/C [27]: 52.6%
- viability, T/C [28]: 35.2%
- viability, T/C [29]: 15.8%
- viability, T/C [30]: 2.67%
- viability, T/C [31]: 62.1%
- viability, T/C [32]: 58.3%
- viability, T/C [33]: 54.8%
- viability, T/C [34]: 32.5%
- viability, T/C [35]: 17.8%
- viability, T/C [36]: 3.92%

Compound: O=C(c1cc(Cc2n[nH]c(=O)c3ccccc23)ccc1F)N1CCN(C(=O)C2CC2)CC1 + Cc1[nH]c2ccc(F)cc2c1-c1nc2c3cccnc3c3ncccc3c2[nH]1
- IC50 (second compound 0.0316 µM): > 10000 nM
- IC50 (second compound 0.1 µM): > 10000 nM
- IC50 (second compound 0.316 µM): > 10000 nM
- IC50 (second compound 1 µM): > 10000 nM
- IC50 (second compound 3.16 µM): 8310 nM
- IC50 (second compound 10 µM): > 10000 nM
- viability, T/C [1]: 90%
- viability, T/C [2]: 88.3%
- viability, T/C [3]: 88%
- viability, T/C [4]: 84.7%
- viability, T/C [5]: 80.5%
- viability, T/C [6]: 64.5%
- viability, T/C [7]: 98%
- viability, T/C [8]: 89.9%
- viability, T/C [9]: 94%
- viability, T/C [10]: 79.5%
- viability, T/C [11]: 80%
- viability, T/C [12]: 56.9%
- viability, T/C [13]: 92.1%
- viability, T/C [14]: 93%
- viability, T/C [15]: 88.8%
- viability, T/C [16]: 83.1%
- viability, T/C [17]: 76%
- viability, T/C [18]: 55.4%
- viability, T/C [19]: 90.6%
- viability, T/C [20]: 89.7%
- viability, T/C [21]: 88.4%
- viability, T/C [22]: 77.1%
- viability, T/C [23]: 74.1%
- viability, T/C [24]: 56.7%
- viability, T/C [25]: 69.8%
- viability, T/C [26]: 67.4%
- viability, T/C [27]: 68.4%
- viability, T/C [28]: 63.5%
- viability, T/C [29]: 59.5%
- viability, T/C [30]: 48.2%
- viability, T/C [31]: 68.9%
- viability, T/C [32]: 66.5%
- viability, T/C [33]: 70.2%
- viability, T/C [34]: 62.1%
- viability, T/C [35]: 61.1%
- viability, T/C [36]: 49.4%

Compound: CC1COCCN1c1cc(C2(O)CC3CCC(C2)O3)c2cnn(-c3ccn[nH]3)c2n1 (stereo not given) + Cc1cnc(CNC(=O)c2c(=O)c3ccc(N4CCCN(C)CC4)nc3n3c2sc2ccccc23)cn1
- IC50 (second compound 0.0316 µM): < 31.6 nM
- IC50 (second compound 0.1 µM): < 31.6 nM
- IC50 (second compound 0.316 µM): < 31.6 nM
- IC50 (second compound 1 µM): < 31.6 nM
- IC50 (second compound 3.16 µM): < 31.6 nM
- IC50 (second compound 10 µM): < 31.6 nM
- viability, T/C [1]: 37.6%
- viability, T/C [2]: 31.2%
- viability, T/C [3]: 25%
- viability, T/C [4]: 19.6%
- viability, T/C [5]: 12.4%
- viability, T/C [6]: 8.78%
- viability, T/C [7]: 38.3%
- viability, T/C [8]: 28.8%
- viability, T/C [9]: 24.3%
- viability, T/C [10]: 17.5%
- viability, T/C [11]: 11.4%
- viability, T/C [12]: 7.39%
- viability, T/C [13]: 36.4%
- viability, T/C [14]: 33%
- viability, T/C [15]: 25%
- viability, T/C [16]: 15.8%
- viability, T/C [17]: 11.2%
- viability, T/C [18]: 6.81%
- viability, T/C [19]: 29.6%
- viability, T/C [20]: 27.9%
- viability, T/C [21]: 24.2%
- viability, T/C [22]: 14.8%
- viability, T/C [23]: 10.2%
- viability, T/C [24]: 4.76%
- viability, T/C [25]: 31.6%
- viability, T/C [26]: 25.4%
- viability, T/C [27]: 19.5%
- viability, T/C [28]: 12.9%
- viability, T/C [29]: 9.19%
- viability, T/C [30]: 5.97%
- viability, T/C [31]: 29.4%
- viability, T/C [32]: 24.4%
- viability, T/C [33]: 17%
- viability, T/C [34]: 12.7%
- viability, T/C [35]: 10.2%
- viability, T/C [36]: 0.18%

Reference: PubChem BioAssay AID2060505 (Molecular Pharmacology Branch, DTP, NCI, 2025)
